The values below come from patent publication US20200038398A1, “COMBINATION THERAPY WITH GLUTAMINASE INHIBITORS” (Calithera Biosciences, Inc., priority 2017, published 2020).

Molecules are shown by their SMILES. Like-named read-outs stand apart in the source and are kept apart here. Where only a bound is given, the exact number is not on record here.

The subject of one test is P493-6 (myc “on”) cells. The test can be described thus: Cell Proliferation Assay. Particulars: 72 hrs incubation. In kind it is cell-based. How it is done: P493-6 (myc “on”) cells were maintained in growth media (RPMI-1640, 10% FBS, 2 mM glutamine, 100 units/ml Penicillin and 100 μg/ml streptomycin) at 37° C. with 5% CO2. For compound assay, P493-6 cells were plated in 96-well V-bottom plates on the day of compound addition in 50 μl of growth media at a cell density of 200,000 cells/ml (10,000 cells/well). Compounds were serially diluted in 100% DMSO at 200-times the final concentration. Compounds were diluted 100-fold into growth media and then 50 μl of this mixture was added to cell plates making the final concentration of DMSO 0.5%. Cells were incubated with compound for 72 hrs at 37° C. with 5% CO2 and analyzed for antiproliferative effects either by Cell Titer Glo (Promega) or FACS analysis using the Viacount (Millipore) kit on the Guava instrument.

Test [1] has as its system HCC1569 (breast) cancer cell lines. Description: Combination cell viability (CellTiter-Glo), CB-839 with palbociclib. The note with it: FIG. 1a; combination with CDK 4/6 inhibitor palbociclib, various concentrations of CB-839, 72 hours. In kind it is cell-based. The protocol: (§1) Cells were treated with a dose titration of either CB-839, an anti-cancer agent, or a mixture thereof for 72 hours (for palbociclib or talazoparib) or 6 days (for niraparib) in growth media. At the end of the incubation, cell viability was measured using CellTiter-Glo as per manufacturer's protocol (Promega, Madison, Wis.). Cell proliferation for all compound treatments is represented with bar graphs, where luminescent output, Relative Light Units (RLU), correlates with viable cell number. Combination indices were calculated using CalcuSyn software (biosoft.com) and reported for individual mixtures of CB-839 and each agent.
Background: Cellular ATP, detected with luciferase, serves as a proxy for viable cell number.

The subject of test [2] is estrogen receptor positive (ER+) breast cancer. The test is described as above. The test is classed as cell-based. The note with it: FIG. 2a; combination with CDK 4/6 inhibitor palbociclib, various concentrations of CB-839, 72 hours. How it is done:
as §1

Test [3] relates to UWB1.289 ovarian cancer cell lines. The test can be described thus: Combination cell viability (CellTiter-Glo), CB-839 with niraparib. In kind it is cell-based. Particulars: FIG. 3a; combination with PARP inhibitor niraparib, various concentrations of CB-839, 6 days. How it is done: as §1
In test [4] the test system is HCC1395 breast cancer cell lines. The test can be described thus: Combination cell viability (CellTiter-Glo), CB-839 with talazoparib. Particulars: FIG. 3b; combination with PARP inhibitor talazoparib, various concentrations of CB-839, 72 hours. The test is classed as cell-based. The protocol:
as §1

For test [5], the system named is H1975 lung cancer cell lines. Description: Combination cell viability (CellTiter-Glo), CB-839 with osimertinib. The test is classed as cell-based. The note with it: FIG. 4b, various concentrations of CB-839, 72 hours. How it is done: as §1, with “agent, osimertinib alone” for “agent,”, “of CB-839 and osimertinib” for “thereof”, “hours” for “hours (for palbociclib or talazoparib) or 6 days (for niraparib)”, “relative” for “viable”, “osimertinib.” for “each agent.”

Test [6] has as its system HCC827 lung cancer cell lines. Described as above. The test is classed as cell-based. Particulars: FIG. 4a, various concentrations of CB-839, 72 hours. The protocol: as §1, with “agent, osimertinib alone” for “agent,”, “of CB-839 and osimertinib” for “thereof”, “hours” for “hours (for palbociclib or talazoparib) or 6 days (for niraparib)”, “relative” for “viable”, “osimertinib.” for “each agent.”

For test [7], the system named is MCF-7 breast adenocarcinoma cells. Description: MCF-7 xenograft, CB-839 and palbociclib. Particulars: combination CB-839 200 mg/kg PO BID and palbociclib orally once daily; scid/bg mice; FIG. 2b. In kind it is in vivo. How it is done:
Female scid/bg mice were implanted subcutaneously with 17B-estradiol sustained release pellets on Day −1. The following day mice were implanted subcutaneously with 5×10^6 MCF-7 breast adenocarcinoma cells mixed 1:1 with matrigel. On Day 7 post-implant, mice were randomized into groups of n=10/group to receive the following: 1) Vehicle (25% hydroxypropyl-B-cyclodextrin) orally BID; 2) CB-839 at 200 mg/kg orally BID; 3) Palbociclib at 50 mg/kg orally once daily; or 4) CB-839 at 200 mg/kg PO BID and Palbociclib orally once daily. Tumors were measured with calipers three times per week and tumor volume calculated using the formula tumor volume (mm^3)=(a×b^2/2) where ‘b’ is the smallest diameter and ‘a’ is the largest perpendicular diameter. ****P<0.0001 (ANOVA) versus both monotherapies.

Usually IC50 stands for the concentration that gives 50% inhibition. `[2H]C([2H])(CCc1nnc(N)s1)C([2H])([2H])c1ccc(NC(=O)Cc2cccc(OC(F)(F)F)c2)nn1` [Compound 726]: the IC50 with P493-6 (myc “on”) cells (P493-6, read-out: Cell prolif P493 72h IC50) turned out to be 610 nM.

As for `O=C(Cc1cccc(OC(F)(F)F)c1)Nc1ccc(CCCCc2nnc(NC(=O)Cc3ccccn3)s2)nn1` [CB-839], the “synergy between CB-839 and palbociclib” value in test [1] and in test [2] was “synergy” throughout. Besides, the “synergy between CB-839 and niraparib” value in test [3] is reported as “synergy”. Besides, the “synergy between CB-839 and talazoparib” value in test [4] is on record as “synergy”. The “synergy between CB-839 and osimertinib” value in test [5] and in test [6] was “synergy” in each case. Further, in test [7], the “tumor volume, P (ANOVA) versus both monotherapies” value is listed as less than 0.0001.

As to `[2H]C([2H])(CCc1nnc(NC(=O)Cc2ccccn2)s1)C([2H])([2H])c1ccc(NC(=O)Cc2cccc(OC(F)(F)F)c2)nn1` [Compound 727], the IC50 in the test on P493-6 (myc “on”) cells (read-out: Cell prolif P493 72h IC50) was determined as 12 nM.
